This is an account of results in publication PMC11945486, “TAS1R2/TAS1R3 Single-Nucleotide Polymorphisms Affect Sweet Taste Receptor Activation by Sweeteners: The SWEET Project” (Nutrients, 2025).

For the experiment, the target named is T1, human TAS1R2-I486V (subunit alone) (Homo sapiens, UniProt Q8TE23, I486V).
T1 construct: expressed in transfected cells; host or cells: HEK293T-Gα16gust44
T1 sequence (Q8TE23 20-839 I486V): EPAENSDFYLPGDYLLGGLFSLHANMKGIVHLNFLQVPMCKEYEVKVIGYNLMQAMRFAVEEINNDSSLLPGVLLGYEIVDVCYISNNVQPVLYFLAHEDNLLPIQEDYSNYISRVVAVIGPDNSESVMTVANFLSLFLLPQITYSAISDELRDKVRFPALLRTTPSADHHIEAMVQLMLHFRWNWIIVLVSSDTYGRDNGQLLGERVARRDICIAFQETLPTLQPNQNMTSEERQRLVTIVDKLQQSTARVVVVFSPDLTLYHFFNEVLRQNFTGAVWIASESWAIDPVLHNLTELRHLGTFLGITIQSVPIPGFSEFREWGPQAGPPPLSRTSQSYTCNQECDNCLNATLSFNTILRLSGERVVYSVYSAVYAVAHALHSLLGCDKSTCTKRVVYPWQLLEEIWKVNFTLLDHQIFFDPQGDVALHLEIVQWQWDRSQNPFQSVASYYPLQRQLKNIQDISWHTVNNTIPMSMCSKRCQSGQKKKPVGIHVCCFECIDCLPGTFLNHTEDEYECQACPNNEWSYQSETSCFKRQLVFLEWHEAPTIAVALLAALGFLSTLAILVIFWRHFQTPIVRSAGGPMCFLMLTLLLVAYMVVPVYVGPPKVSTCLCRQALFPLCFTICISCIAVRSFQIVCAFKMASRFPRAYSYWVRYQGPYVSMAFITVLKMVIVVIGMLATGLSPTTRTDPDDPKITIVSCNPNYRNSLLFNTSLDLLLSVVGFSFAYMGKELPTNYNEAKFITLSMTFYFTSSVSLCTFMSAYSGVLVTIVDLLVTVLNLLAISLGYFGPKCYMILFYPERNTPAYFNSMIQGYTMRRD
Put plainly: Calcium mobilisation assay, TAS1R2-I486V subunit alone. It counts as cell-based. From the text:
The coding sequences for TAS1R2 and TAS1R3 were commercially synthesised, and the human codon was optimised for expression in human cells. The coding sequences of human TAS1R2 and TAS1R3 were subcloned and inserted into the mammalian expression vectors pcDNA6/myc-HisA and pcDNA4/myc-HisA (Invitrogen; Thermo Fisher Scientific; Illkirch, France) between the EcoRI and NotI restriction sites, generating the plasmids pcDNA6-TAS1R2 and pcDNA4-TAS1R3, respectively. To increase protein expression in mammalian cells, an upstream start codon was used, which was a sequence called MAX, corresponding to the QBI SP163 element also described in pcDNA4-HisMax (Invitrogen; Thermo Fisher Scientific; Illkirch, France). To measure the expression level of the receptor by immunohistochemistry, we used the FLAG sequence ([…]) in the C-terminal position, which encodes the FLAG tag epitope. […]
The HEK293T cells were kindly provided by Jay P. Slack (Givaudan Flavors Corporation; Cincinnati, OH, USA). […] The fluorescence intensity was measured for 90 s (excitation 488 nm, emission 510 nm) in an automated fluorometric FlexStation®3 Multi-Mode microplate reader (Molecular Devices; San Jose, CA, USA). […] The Ca^2+ changes were expressed as fractional changes in fluorescent light intensity: ΔF/F = (F − F0)/F0, where F was the fluorescent light intensity at each point, and F0 was the value of emitted fluorescent light prior to stimulus application. To calculate dose–response relationships, the changes in fluorescence upon stimulus application were averaged, mock-subtracted and baseline-corrected. […] The half-maximal effective concentrations (EC50 values) and maximal signal amplitudes were calculated using SigmaPlot software (version 15.0) (Systat Software; San Jose, CA, USA).
For in vitro calcium mobilisation assay performed on hTAS1R2-SNPs, hTAS1R3-SNPs and mTAS1R3-I60T, 6 to 7 concentrations were tested for each sweet compound, plus buffer alone. All concentration–receptor combinations were measured in duplicate, and each experiment was repeated at least 4 times (8 wells/concentration). […]
For orientation: A change in cytosolic calcium serves as a functional read-out for many receptors and channels.

Usually EC50 stands for the concentration that produces a half-maximal response. `C=C(C)[C@@H]1CC=C(/C=N/O)CC1` [Perillartine, perillartine]: the EC50 turned out to be 124 ± 14.1 µM and the “R1 = Variant EC50/WT EC50” value is given as 1.4. For the same molecule, the “Max ΔF/F0” value (maximal signal amplitude) was 0.39 ± 0.02.
